In data set [1] the test system is LmLAP-overexpressing L. major promastigotes. The class given is cell-based, Leishmania major. The conditions noted are these: compound at EC50, 72 h, n = 70 cells per condition. As for the experimental part:
L. major promastigotes (WT and LmLAP OE) were grown in supplemented HOMEM media as described above, in T25 flasks. […] L. major WT cells were grown at control conditions. Briefly, cells were fixed directly in culture media with 3% (v/v) paraformaldehyde for 15 min at room temperature, washed three times with excess D-PBS, permeabilized with 0.2% Triton X-100 (v/v) in PBS for 5 min, and washed three times in excess PBS. Slides were mounted with mounting medium with DAPI (Vectashield Lab H-1000–10). Microscopy was carried out on a Zeiss microscope and images captured using software Zen Blue (Zeiss). Analysis of images and figure preparation were made in Omero.[71]

The target in data set [2] is T1, rHsLAP (Homo sapiens, UniProt P28838).
T1 construct: purchased Assay Genie, Ireland
The experiment in a line: RapidFire-MS selectivity study against human LAP. The class given is biochemical. The conditions noted are these: for IC50: 150 nM rHsLAP, 600 μM LSTVIVR, 1 mM ZnCl2, 180 min. As for the experimental part:
The reaction mixture included 600 μM (1× appKM) LSTVIVR substrate peptide, 1 mM ZnCl2, and the reaction time was 180 min. The inhibitors were tested at concentrations ranging from 0.78 to 100 μM to determine inhibitory activity.

In data set [3] the test system is parental (WT) L. major promastigotes. The experiment in a line: Drug sensitivity assay (resazurin), parental L. major promastigotes. Format: cell-based. As for the experimental part: L. major promastigotes were cultured in HOMEM (Gibco) supplemented with 10% heat inactivated FBS at 28 °C.
L. major promastigotes were seeded in 96-well plates at 5 × 10^4/mL, exposed to 2-fold serial dilutions of test compounds, and incubated at 28 °C for 72 h. Resazurin was, then, added to each well to a final concentration of 50 μM, and fluorescence was measured after 2–3 h (excitation of 528 nm and emission of 590 nm). The EC50 was calculated by processing the collected data by GRAFIT (version 5.0.4, Erithacus Software) and fitting them to the following two-parameter equation: [drawing 6] 6 where [I] is the inhibitor concentration, and m is the slope. Experiments were performed on at least three independent biological replicates. Data are presented as the weighted mean ± standard deviation.

Data set [4] relates to LmjF.33.2570 (metallo-peptidase, Clan MF, Family M17). The data set is described as follows: Isothermal TPP (iTPP) thermal stabilization, LmjF.33.2570. Format: binding, Leishmania major. Conditions: L. major promastigote lysate, 47 °C, compound at 10× EC50 vs DMSO. As for the experimental part: (§1) Cell lysates were obtained as detailed above. Isothermal TPP assays were performed as previously described[29] but here lysates were incubated at two temperatures: 28 and 47 °C. The first temperature (28 °C) acts as a control temperature at which the protein levels are not altered by the presence of the test compound. The second temperature (47 °C) is the Leishmania spp. median Tm (melting temperature or temperature 50%) according to our interim data. […] These samples were aliquoted and submitted to a temperature shock at the designated temperature for 3 min, then 3 min at room temperature, and finally 3 min on ice. The soluble part was isolated by ultracentrifugation (100,000g, 20 min, 4 °C).
(§2) All aspects of sample processing, TMT-labeling, fractionation by HPLC into 10 fractions, LC-MS/MS, and protein identification and quantitation were described previously.[28],[68] Proteins with less than three peptides and those with increased stability at 28 °C were disregarded.
(§3) Proteins were identified by searching the MS and MS/MS data for the peptides against L. major strain Friedlin (TriTryp version 61, tritrypdb.org) using MaxQuant (http://maxquant.org/, version 2.1.4.0). All proteomics data sets have been deposited to the ProteomeXchange Consortium via the PRIDE[69] partner repository with the identifier PXD00000. Data were analyzed with Perseus v 1.6.15.[70] The reporter intensities of each protein were extracted and normalized to the control temperature reporter intensity (28 °C), then these normalized values were used to calculate the log2 transformed fold-changes (FC) of […] samples. Proteins stabilized (log2 FC > 1 in both replicates) were selected as putative hits.

In data set [5] the test system is LmjF.35.1670 (60S ribosomal protein L26, putative). The data set is described as follows: Isothermal TPP (iTPP) thermal stabilization, LmjF.35.1670. Format: binding, Leishmania major. Conditions: L. major promastigote lysate, 47 °C, compound at 10× EC50 vs DMSO. As for the experimental part:
as §1, §2, §3

The test system of data set [6] is RAW 264.7 murine macrophages. The conditions noted are these: 100 μM, 48 h, MTT. An excerpt: Blank contains only culture medium. […] Each assay was developed in triplicate.
The target in data set [7] is rLmLAP (Leishmania major, UniProt Q7KF27). The data set is described as follows: Mode of inhibition studies for rLmLAP (Leu-pNA, Lineweaver-Burk). The conditions noted are these: for Modality of rLmLAP inhibition: Lineweaver-Burk, 0, 15, 30, 60 μM inhibitor, L-Leu-pNA 0.59-300 μM. Format: biochemical. The method, then: The aminopeptidase enzymatic activity was determined by a continuous kinetic method.[26] The reaction was performed in 50 mM sodium phosphate, pH 7.0, in the presence of 13.9 nM rLmLAP (which is within the linear range of the v0 vs. enzyme concentration relationship) and 30 μM (1 appKM; 23) of the chromogenic substrate L-Leu-p-nitroanilide (Leu-pNA; 2 μL, in DMSO). The reaction was carried out at 25 °C in 96-well microplates (200 μL final volume), in a microplate spectrophotometer (FLUOstar OPTIMA, Germany). The increase of the absorbance at 405 nm (due to the release of the pNA chromogen) was recorded every 15 s for 5 min. Only the linear ranges of the typical curves, corresponding to substrate consumptions lower than 5% (v0 conditions) were used to measure the reaction velocity. Slopes with determination coefficients (R^2) < 0.98 were not considered for linear fits.
For the determination of the inhibition mode, inhibitors were used at 0, 15, 30, and 60 μM. For each inhibitor concentration, the substrate Leu-pNA was added at different concentrations (0.59–300 μM). Experimental data were transformed, and the Lineweaver–Burk double reciprocal plots were constructed. The following equation was used: [drawing 3] 3 where appvmax is the apparent maximal rate of the reaction, and [S]0 is the initial substrate concentration.[26] The inhibition type was determined graphically from the lines of the double reciprocal plots.[26]

The subject of data set [8] is LmjF.11.0630 (metallo-peptidase, Clan MF, Family M17). The experiment in a line: Isothermal TPP (iTPP) thermal stabilization, LmjF.11.0630. The class given is binding, Leishmania major. Conditions: L. major promastigote lysate, 47 °C, compound at 10× EC50 vs DMSO. As for the experimental part:
as §1, §2, §3

Data set [9] concerns LmjF.23.0040 (peroxidoxin). The experiment in a line: Isothermal TPP (iTPP) thermal stabilization, LmjF.23.0040. Format: binding, Leishmania major. Conditions: L. major promastigote lysate, 47 °C, compound at 10× EC50 vs DMSO. As for the experimental part:
as §1, §2
Proteins were identified by searching the MS and MS/MS data for the peptides against L. major strain Friedlin (TriTryp version 61, tritrypdb.org) using MaxQuant (http://maxquant.org/, version 2.1.4.0). All proteomics data sets have been deposited to the ProteomeXchange Consortium via the PRIDE[69] partner repository with the identifier PXD00000. Data were analyzed with Perseus v 1.6.15.[70] […]

The mark [10] stands for this setting: Leishmania major; value of the specific curve shown in Figure 4; read-out: EC50 (WT), representative curve.

Where two headings read alike, the source gives them in different places.

T1 sequence (P28838 whole entry): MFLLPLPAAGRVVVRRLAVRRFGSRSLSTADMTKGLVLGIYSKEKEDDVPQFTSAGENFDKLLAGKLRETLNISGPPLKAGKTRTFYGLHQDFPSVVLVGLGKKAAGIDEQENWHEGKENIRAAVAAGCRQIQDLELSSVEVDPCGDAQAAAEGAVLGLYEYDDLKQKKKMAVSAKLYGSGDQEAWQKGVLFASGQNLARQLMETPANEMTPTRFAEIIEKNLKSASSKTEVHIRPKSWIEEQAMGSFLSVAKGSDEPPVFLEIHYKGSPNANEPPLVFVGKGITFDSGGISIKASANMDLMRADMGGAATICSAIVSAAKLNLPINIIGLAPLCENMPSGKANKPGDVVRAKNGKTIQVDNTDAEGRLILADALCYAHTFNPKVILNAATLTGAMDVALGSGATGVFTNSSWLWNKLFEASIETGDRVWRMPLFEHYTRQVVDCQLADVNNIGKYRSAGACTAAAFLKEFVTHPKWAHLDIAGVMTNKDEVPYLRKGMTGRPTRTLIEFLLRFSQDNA
rLmLAP, sequence (Q7KF27 entry or part of it): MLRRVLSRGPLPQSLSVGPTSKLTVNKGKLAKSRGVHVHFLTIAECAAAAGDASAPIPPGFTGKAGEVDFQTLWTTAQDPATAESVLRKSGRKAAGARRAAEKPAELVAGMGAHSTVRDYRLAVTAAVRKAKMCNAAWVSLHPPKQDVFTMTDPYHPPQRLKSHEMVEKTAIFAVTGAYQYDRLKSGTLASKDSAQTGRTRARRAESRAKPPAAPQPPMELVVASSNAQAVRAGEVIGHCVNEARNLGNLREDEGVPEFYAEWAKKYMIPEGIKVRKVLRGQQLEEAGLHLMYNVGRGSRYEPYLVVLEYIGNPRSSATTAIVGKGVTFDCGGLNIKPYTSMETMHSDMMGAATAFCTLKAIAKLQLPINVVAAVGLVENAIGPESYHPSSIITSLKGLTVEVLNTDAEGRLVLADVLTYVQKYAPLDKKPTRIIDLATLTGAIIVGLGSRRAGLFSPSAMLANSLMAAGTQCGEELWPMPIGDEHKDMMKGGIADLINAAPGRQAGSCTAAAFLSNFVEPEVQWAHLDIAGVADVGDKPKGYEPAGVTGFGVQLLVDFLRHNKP

As for `COc1ccc(Cc2c(N)nc(-c3ccccn3)nc2N)cc1` [DDD00057570], the “Frequency of elongated 1K1N1F forms in LmLAP-overexpressing cells” value in [1] is recorded as about 36%. In data set [2], this molecule came in with an inhibition at 100 µM of 35% and an IC50 of over 100 µM. For the same molecule, the EC50 in data set [3] (Leishmania major, 72 h, resazurin; weighted mean ± SD (n = 5); read-out: EC50 (weighted mean), parental (WT) L. major promastigotes) worked out at 1800 ± 200 nM. Also, in data set [3] (setting [10]), the EC50 was found to be 1100 ± 200 nM. Besides, in data set [4], the “Enrichment (log2) replica A, LmjF.33.2570” value came out at 1.38 log2 and the “Enrichment (log2) replica B, LmjF.33.2570” value is given as 1.17 log2. Further, in data set [5], the “Enrichment (log2) replica A, LmjF.35.1670” value amounted to 1.36 log2 and the “Enrichment (log2) replica B, LmjF.35.1670” value came to 1.64 log2. Further, in data set [6], the “Maximum inhibitory effect, RAW 264.7 macrophage cell line” value is reported as 52%. Also, in [7], the “Modality of rLmLAP inhibition” value is listed as “noncompetitive inhibitor”. Also, the “α (noncompetitive inhibition mechanism)” value in [7] (α > 1: preferential binding to free enzyme) is over 1. In data set [8], the “Enrichment (log2) replica A, LmjF.11.0630” value came out at 1.47 log2 and the “Enrichment (log2) replica B, LmjF.11.0630” value came to 1.34 log2.

As to `O=C(c1cccs1)N(CCCn1ccnc1)c1nc2ccccc2s1` [DDD00097924], in [1], the “Frequency of elongated 1K1N1F forms in LmLAP-overexpressing cells” value is about 36%. In [2], this molecule came in with an inhibition at 100 µM of 62% and an IC50 of 98 µM. Further, in data set [3] (Leishmania major; 72 h, resazurin; weighted mean ± SD (n = 5); read-out: EC50 (weighted mean), parental (WT) L. major promastigotes), the EC50 was 3000 ± 200 nM. The EC50 in [3] (setting [10]) was determined as 1830 ± 200 nM. In data set [4], the “Enrichment (log2) replica A, LmjF.33.2570” value came to 1.97 log2 and the “Enrichment (log2) replica B, LmjF.33.2570” value is given as 1.76 log2. In data set [5], the “Enrichment (log2) replica A, LmjF.35.1670” value is reported as 1.71 log2 and the “Enrichment (log2) replica B, LmjF.35.1670” value is 1.97 log2. Moreover, the “Modality of rLmLAP inhibition” value in data set [7] was “competitive mode inhibition”. For the same molecule, in data set [9], the “Enrichment (log2) replica A, LmjF.23.0040” value was 1.31 log2 and the “Enrichment (log2) replica B, LmjF.23.0040” value was determined as 1.21 log2. Moreover, in data set [8], the “Enrichment (log2) replica A, LmjF.11.0630” value was 2.19 log2 and the “Enrichment (log2) replica B, LmjF.11.0630” value came out at 1.99 log2.

In general, inhibition refers to the percentage by which the read-out fell short of the control. Higher therefore signals strong suppression. In general, IC50 refers to the midpoint of a concentration-inhibition curve. A lower IC50 goes with greater potency. The EC50 is the midpoint of the concentration-response curve.

(Values after paper PMC11184559, “Identification and Validation of Compounds Targeting Leishmania major Leucyl-Aminopeptidase M17” (ACS Infectious Diseases, 2024).)
